Where two headings read alike, the source gives them in different places.
Tests used:
[1] = tested on: SOX2 (ectoderm and pluripotency marker) in RUES2-GLR cells; assay: DevTox GLR-Endo assay: increase in percent SOX2-positive cells (AEID 3095, Sox2_up); conditions: for AC50 / Emax: Homo sapiens; for AC50: read-out: ga (winning model); for Emax: read-out: tp (winning model); for MAX_MEAN: tcpl plot AEID3095, maximum mean response; for MAX_MED: tcpl plot AEID3095, maximum median response;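 on all read-outs here: cells exposed to test chemicals for 48 h in total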
[2] = tested on: SOX17 (endoderm marker) in RUES2-GLR cells; assay: DevTox GLR-Endo assay: increase in percent SOX17-positive cells (AEID 3093, Sox17_up); assay type: cell-based, human; conditions: for Emax: Homo sapiens; for HIT−CALL: tcpl plot AEID3093, COFF 20.3
Method: The total test chemical incubation period was 48 h.
(Supplementary Materials).

[3] = tested on: SOX17 in H9 human ESC line; conditions: SOX17 half-maximal inhibition concentration; read-out: hPST IC50; cited from earlier work
[4] = cited from earlier work; for Development Toxicant Classification: Table S2; for Classification: developmental toxicant classification (Teratogen / Non-Teratogen) of reference and training chemicals, ref DOI per chemical: 10.1093/toxsci/kft239, 10.1093/toxsci/kfaa014, 10.1177/026119290203000204, 10.1038/s41598-020-59542-x; for DT Class.: developmental toxicant classification, chemicals common with hPST
[5] = tested on: RUES2-GLR cells; assay: DevTox GLR-Endo assay: decrease in total cell count, cytotoxicity (AEID 3098, CellCount_dn); conditions: for Emax: Homo sapiens, read-out: Cell Count % Max Inhibition
[6] = in vitro; conditions: human
[7] = tested on: H9 human ESC line; conditions: cited from earlier work
[8] = tested on: SOX17 (endoderm marker) in RUES2-GLR cells; assay: DevTox GLR-Endo assay: decrease in percent SOX17-positive cells (AEID 3094, Sox17_dn); conditions: for AC50 / Emax: Homo sapiens; for Hit Call: Table S2, SOX17-positive cells, cutoff 3*bmad; for DevTox ACC: Table S2, percent SOX17-positive cells, 48 h exposure; for HIT−CALL: tcpl plot AEID3094, COFF 20.3
Summary of the method: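 Readouts are loss of SOX17-positive fraction and reduced cell number in endoderm-differentiating RUES2-GLR cells after 48 h of chemical exposure. Controls: undifferentiated and differentiated cells, 0.2% DMSO, and 1 µM SB431542; at least four biological replicates.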

[9] = tcpl plot AEID3093, maximum mean response, read-out: MAX_MEAN
[10] = tcpl plot AEID3093, maximum median response, read-out: MAX_MED
[11] = cytotoxicity half-maximal concentration
[12] = 48 h, read-out: DevTox-GLR Endo AC50 (µM), SOX17 half-maximal activity concentration, 48 h exposure
[13] = read-out: DevTox % Max Inhibition
[14] = read-out: ga (winning model), tcpl plot AEID3094, gain parameter of winning curve fit (log concentration, µM axis), hit calls only (converted)

Row | Compound | AC50 [1] | Emax [1] | MAX_MEAN [1] | MAX_MED [1] | Emax [2, 9] | Emax [2, 10] | HIT−CALL [2] | IC50 [3] | Development Toxicant Classification [4] | Classification [4] | DT Class. [4] | Emax [5] | hPST TC50 [7, 11] | hPST TC50 ([7]; hPST cytotoxicity) | AC50 [8, 12] | Emax [8, 13] | Emax ([8]; read-out: MAX_MEAN) | Emax ([8]; read-out: MAX_MED) | AC50 [8, 14] | Emax ([8]; read-out: tp (winning model)) | further results
1 | Cc1nc(Nc2ncc(C(=O)Nc3c(C)cccc3Cl)s2)cc(N2CCN(CCO)CC2)n1 [Dasatinib] | 148 µM | 85.8% | 63.7 Percent Activity | 64.4 Percent Activity | 5.98% | 3.77% | 0 | < 1 µM | Positive | Teratogen | Pos | 96% | <1 µM | < 1 µM | 0.72 µM | 102% | 102% | 102% | 0.721 µM | 102% | Cell Count ACC ([5]; human, 48 h): 0.005325 µM; CC50 at 48 h [6]: 0.05 µM; Hit Call [8]: Positive; DevTox ACC [8]: 0.3299 µM; HIT−CALL [8]: 1
2 | O=C1Cc2cc(CCN3CCN(c4nsc5ccccc45)CC3)c(Cl)cc2N1 [Ziprasidone] | 3.67 µM | 4.2% | 4.63 Percent Activity | 4.3 Percent Activity | 3.27% | 4.35% | 0 | 2.8 µM | Positive | Teratogen | Pos | 93.7% | 5.1 µM | 5.1 µM | 3.57 µM | 101% | 101% | 101% | 3.56 µM | 101% | Cell Count ACC ([5]; human, 48 h): 1.527 µM; CC50 at 48 h [6]: 2.42 µM; Hit Call [8]: Positive; DevTox ACC [8]: 2.997 µM; HIT−CALL [8]: 1
3 | CNC(=O)c1cc(Oc2ccc(NC(=O)Nc3ccc(Cl)c(C(F)(F)F)c3)cc2)ccn1 [Sorafenib] | 0.748 µM | 8.9% | 13.6 Percent Activity | 11.9 Percent Activity | 8.73% | 9.19% | 0 | < 2 µM | Positive | Teratogen | Pos | 95.8% | <2 µM | < 2 µM | 0.62 µM | 102% | 102% | 102% | 0.618 µM | 101% | Cell Count ACC ([5]; Table S2, 48 h exposure): 0.4993 µM; CC50 at 48 h ([6]; RUES2-GLR cells under directed endoderm differentiation): 0.61 µM; Hit Call [8]: Positive; DevTox ACC [8]: 0.5004 µM; HIT−CALL [8]: 1
